These results are taken from ChEMBL document CHEMBL3232840, “Anti-proliferative activity of 2,6-dichloro-9- or 7-(ethoxycarbonylmethyl)-9H- or 7H-purines against several human solid tumour cell lines” (Eur J Med Chem, 2014).

The test system of experiment [1] is MCF7. The experiment in a line: Antiproliferative activity against human MCF7 cells after 3 days by sulforhodamine-B colorimetric assay. It counts as functional, cell-based. The note with it: MCF7, 72 h. For orientation: Sulforhodamine B stains cellular protein and so reports cell mass.
Experiment [2] relates to HCT-116. Kind of experiment: Antiproliferative activity against human HCT116 cells after 3 days by sulforhodamine-B colorimetric assay. As to conditions: HCT-116, 72 h. The format is functional, cell-based.
Experiment [3] relates to A-375. Kind of experiment: Antiproliferative activity against human A375 cells after 3 days by sulforhodamine-B colorimetric assay. The format is functional, cell-based. As to conditions: A-375, 72 h.
A short description of experiment [4]: Antiproliferative activity against human G361 cells after 3 days by sulforhodamine-B colorimetric assay. The format is functional, cell-based. As to conditions: G-361, 72 h.
In experiment [5] the test system is MCF7. The experiment in a line: Cell cycle arrest human MCF7 cells assessed as accumulation at G0/G1 phase at IC50 after 24 hrs by flow cytometry (reference value: 34.58 +/- 0.09 % ). It counts as functional. A general note: A flow cytometer gives signals particle by particle.
Experiment [6] has as its system MCF7. Kind of experiment: Cell cycle arrest human MCF7 cells assessed as accumulation at S phase at IC50 after 24 hrs by flow cytometry (reference value: 14.50 +/- 1.06 % ). It counts as functional.
Experiment [7] deals with MCF7. The experiment in a line: Cell cycle arrest human MCF7 cells assessed as accumulation at G2/M phase at IC50 after 24 hrs by flow cytometry (reference value: 50.91 +/- 1.15 % ). It counts as functional.
The subject of experiment [8] is HCT-116. Kind of experiment: Cell cycle arrest human HCT116 cells assessed as accumulation at G0/G1 phase at IC50 after 24 hrs by flow cytometry (reference value: 44.70 +/- 0.38 % ). The format is functional.
Experiment [9] deals with HCT-116. The experiment in a line: Cell cycle arrest human HCT116 cells assessed as accumulation at S phase at IC50 after 24 hrs by flow cytometry (reference value: 38.26 +/- 1.40 % ). The format is functional.
Experiment [10] has as its system HCT-116. Kind of experiment: Cell cycle arrest human HCT116 cells assessed as accumulation at G2/M phase at IC50 after 24 hrs by flow cytometry (reference value: 17.02 +/- 1.40 % ). It counts as functional.
Experiment [11] concerns A-375. The experiment in a line: Cell cycle arrest human A375 cells assessed as accumulation at G0/G1 phase at IC50 after 24 hrs by flow cytometry (reference value: 57.97 +/- 0.93 % ). The format is functional.
For experiment [12], the system named is A-375. Kind of experiment: Cell cycle arrest human A375 cells assessed as accumulation at S phase at IC50 after 24 hrs by flow cytometry (reference value: 29.60 +/- 0.78 % ). It counts as functional.
Experiment [13] concerns A-375. Kind of experiment: Cell cycle arrest human A375 cells assessed as accumulation at G2/M phase at IC50 after 24 hrs by flow cytometry (reference value: 12.42 +/- 0.70 % ). It counts as functional.
Experiment [14] has as its system MCF7. Kind of experiment: Induction of apoptosis in human MCF7 cells at IC50 after 24 hrs by annexin V-FITC/PI-based flow cytometry (reference value: 10.80 +/- 0.85 % ). The format is functional.
Experiment [15] deals with HCT-116. The experiment in a line: Induction of apoptosis in human HCT116 cells at IC50 after 24 hrs by annexin V-FITC/PI-based flow cytometry (reference value: 7.27 +/- 1.57 % ). It counts as functional.
Experiment [16] concerns A-375. Kind of experiment: Induction of apoptosis in human A375 cells at IC50 after 24 hrs by annexin V-FITC/PI-based flow cytometry (reference value: 6.83 +/- 0.40 % ). The format is functional.

As to `CCOC(=O)Cn1cc(F)c(=O)[nH]c1=O`, the IC50 in the experiment on MCF7 [1] is 25.2 µM; with HCT-116 [2] it was 24.6 µM; in the experiment with A-375 [3], 38.4 µM; in [4], 29 µM.

Consider `CCOC(=O)Cn1cnc2ncnc(Br)c21`, for which the IC50 worked out at 20.2 µM with MCF7 [1], 55.7 µM in the experiment with HCT-116 [2], 26.7 µM in the experiment with A-375 [3] and 18.3 µM in [4].

For the compound `CCOC(=O)Cn1c(=O)[nH]cc(F)c1=O`, the IC50 in the experiment with MCF7 [1] turned out to be 30.5 µM; in the experiment on HCT-116 [2], 22.6 µM; in the experiment with A-375 [3], 50.9 µM; in [4], 25.4 µM.

In the case of `CCOC(=O)Cn1cnc2nc(Cl)nc(Cl)c21`, the IC50 was 5.63 µM with MCF7 [1], 6.36 µM with HCT-116 [2], 4.98 µM with A-375 [3] and 5.67 µM in [4]. In addition, the Activity came out at 34.54% with MCF7 [5]; 18.27% in the experiment on MCF7 [6]; 47.19% with MCF7 [7]; 33.58% with HCT-116 [8]; 37.93% in the experiment with HCT-116 [9]; 28.47% in the experiment on HCT-116 [10]. In addition, the Activity with A-375 [11] was 70.55%; in the experiment on A-375 [12], 20.1%; in the experiment on A-375 [13], 9.34%; with MCF7 [14], 24.1%; in the experiment on HCT-116 [15], 17.03%; with A-375 [16] it was 27.13%.

Regarding `CCOC(=O)Cn1cnc2c(Cl)ncnc21`, the concentration for half-maximal inhibition (IC50) with MCF7 [1] is 35.1 µM; in the experiment on HCT-116 [2], 5.27 µM; in the experiment on A-375 [3], 18.9 µM; in experiment [4], 21.4 µM.

Turning to `CCOC(=O)Cn1cnc2c(Br)ncnc21`, the IC50 in the experiment with MCF7 [1] turned out to be 14.1 µM; in the experiment with HCT-116 [2], 23.5 µM; in the experiment with A-375 [3], 13.4 µM; in experiment [4] it was 15.8 µM.

Turning to `CCOC(=O)Cn1cnc2ncnc(Cl)c21`, the 50% inhibitory concentration (IC50) in the experiment with MCF7 [1] was 49.8 µM; with HCT-116 [2], 68 µM; in the experiment on A-375 [3], 14.5 µM; in experiment [4], 21.4 µM.

As to `CCOC(=O)Cn1cnc2c(Cl)nc(Cl)nc21`, the IC50 in the experiment on MCF7 [1] came out at 3.93 µM; with HCT-116 [2] it was 6.2 µM; in the experiment with A-375 [3], 1.18 µM; in experiment [4], 3.06 µM. Moreover, the Activity in the experiment on MCF7 [5] amounted to 28.17%; in the experiment with MCF7 [6], 15.39%; with MCF7 [7], 54.63%; in the experiment with HCT-116 [8] it was 45.93%; in the experiment on HCT-116 [9] it was 36.75%; in the experiment on HCT-116 [10], 17.31%. The Activity with A-375 [11] stood at 58.48%; in the experiment on A-375 [12] it was 28.78%; in the experiment on A-375 [13], 12.73%; in the experiment with MCF7 [14], 20.53%; in the experiment on HCT-116 [15], 20.2%; in the experiment on A-375 [16], 35.37%.

What is called IC50 is the concentration at which inhibition is half-maximal. A high value points to weaker potency.
